Data: PMC11274883, “Anticancer Effect of Pt^[sequence], Pt^II5MESS, Pt^II56MESS and Their Platinum(IV)-Dihydroxy Derivatives against Triple-Negative Breast Cancer and Cisplatin-Resistant Colorectal Cancer” (Cancers, 2024)

Assays:
Assay type in all cases: cell-based
HT29 cells [1] = test: TMRE mitochondrial membrane potential assay; settings: complexes at IC50, FCCP 20 µM
Experimental: (§1) Cells were then treated with an IC50 drug concentration for each complex. At 24, 48 or 72 h, DMEM was removed, and cells were washed with PBS. Then, cells were incubated with 1 µM tetramethylrhodamine, ethyl ester (TMRE) stain for 30 min. TMRE was then removed, and cells were washed twice with PBS (0.2% BSA), after which phenol red-free media was added. […] The cells were then stained with TMRE, as described above, and the resulting solution was scanned for fluorescence. Three independent experiments in triplicates were implemented.

MDA−MB−231 cells [2] = test: TMRE mitochondrial membrane potential assay; settings: complexes at IC50, FCCP 20 µM
Experimental: as §1

HT29 cells [3] = test: DCFDA cellular ROS detection assay; settings: complexes at IC50, TBHP 20 µM
Experimental: (§2) DCFDA/H2DCFDA-cellular ROS Assay Kit (Abcam, Cambridge, MA, USA) was used to investigate the production of ROS in treated cells, as previously described. MDA−MB−231 or HT29 cells were seeded at a total concentration of 2500 cells/well in 96-well plates and incubated overnight. DMEM was then removed, and cells washed with 1× kit buffer, and stained with 25 µM 2′,7′-dichlorofluorescein diacetate (DCFH-DA) for 45 min. […] After that, the plates were scanned using the Glo-Max®-Multimode microplate reader (Promega Corporation, Alexandra, VIC, Australia) at an excitation/emission of 485/535 nm to detect fluorescence (relative fluorescence units, or RFU) at various time points. A positive control was generated using 20 µM tert-butyl hydroperoxide (TBHP), and the same procedure was applied with DCFDA. Three independent experiments in triplicates were implemented.

MDA−MB−231 cells [4] = test: DCFDA cellular ROS detection assay; settings: complexes at IC50, TBHP 20 µM
Experimental: as §2

`N#CC(C#N)=NNc1ccc(OC(F)(F)F)cc1` [FCCP, carbonyl cyanide 4-(trifluoromethoxy) phenylhydrazone, reference compound] was tested, and the “MtMp (mitochondrial membrane potential)” value (HT29 cells [1]; HT29, 24 h) was 184.32 RFU, the “MtMp (mitochondrial membrane potential)” value (HT29 cells [1]; HT29, 48 h) was 143.31 RFU and the “MtMp (mitochondrial membrane potential)” value (HT29 cells [1]; HT29, 72 h) was 83.58 RFU. For the same compound, the “MtMp (mitochondrial membrane potential)” value (MDA−MB−231 cells [2]; MDA−MB−231, 24 h) was 215.89 RFU, the “MtMp (mitochondrial membrane potential)” value (MDA−MB−231 cells [2]; MDA−MB−231, 48 h) was 123.38 RFU and the “MtMp (mitochondrial membrane potential)” value (MDA−MB−231 cells [2]; MDA−MB−231, 72 h) was 99.10 RFU.

In the case of `CC(C)(C)OO` [TBHP, tert-butyl hydroperoxide, reference compound], the ROS production (HT29 cells [3]; HT29, 24 h) is reported as 544.67 RFU, the ROS production (HT29 cells [3]; HT29, 48 h) is reported as 362.55 RFU and the ROS production (HT29 cells [3]; HT29, 72 h) is reported as 371.44 RFU. For the same compound, the ROS production (MDA−MB−231 cells [4]; MDA−MB−231, 24 h) was 509.88 RFU, the ROS production (MDA−MB−231 cells [4]; MDA−MB−231, 48 h) was 400.11 RFU and the ROS production (MDA−MB−231 cells [4]; MDA−MB−231, 72 h) was 388.41 RFU.
